{"source": "patent US4670419A", "about": "“Pharmaceutical composition and its rectal use” (Takeda Chemical Industries, Ltd., priority 1982, dated 1987)", "key": {"[1]": {"conditions": "rat, in vivo", "description": "(§1) SD-strain mature female rats (weighing about 270 g, 14 to 18 weeks old, in groups of 4 to 5 individuals) at diestrus as selected by the vaginal smear test covering a period of at least one week are anesthetized with pentobarbital and phenobarbital at 8-11 a.m., and a solution prepared by dissolving 500 μg of TAP-144 and 20 mg (2%), 50 mg (5%) or 100 mg (10%) of α-cyclodextrin in physiological saline in an amount to make 1 ml is administered into the vagina with about 12 mg of cotton soaked therewith at the dose level of 0.2 ml/kg (corresponding 100 μg/kg of TAP-144)."}, "in vivo [2]": {"assay": "in vivo", "conditions": "female, SD, rat, iv, 100 ug/kg", "description": "as §1"}, "in vivo [3]": {"assay": "in vivo", "conditions": "rat, 100 ug/kg, Concentration in Serum", "protocol": "In 0.1 ml of physiological saline are dissolved 100 μg of TAP-144 and 5 mg of α-cyclodextrin, and in the manner of Experimental Example 1, the 0.1 ml/kg equivalent of the solution is administered into the nasal cavity (the dose of TAP-144: 100 μg/kg)."}}}
{"smiles": "CCNC(=O)[C@@H]1CCCN1C(=O)[C@H](CCCNC(=N)N)NC(=O)[C@H](CC(C)C)NC(=O)[C@@H](CC(C)C)NC(=O)[C@H](Cc1ccc(O)cc1)NC(=O)[C@H](CO)NC(=O)[C@H](Cc1c[nH]c2ccccc12)NC(=O)[C@H](Cc1c[nH]cn1)NC(=O)[C@@H]1CCC(=O)N1", "note": "[TAP-144]", "values": [{"measurement": "promotion of vaginal absorption as compared with the control vaginal preparation", "setting": "[1]", "result": "about 6 times"}, {"measurement": "Concentration of TAP-144 in serum", "setting": "[1]; 100 ug/kg, 0.5 h", "result": 32.1, "unit": "ng/mL"}, {"measurement": "level at 5 min", "setting": "in vivo [2]", "result": 212, "unit": "ng/mL"}, {"measurement": "level at 10 min", "setting": "in vivo [2]", "result": 173, "unit": "ng/mL"}, {"measurement": "level at 0.5 h", "setting": "in vivo [2]", "result": 74.2, "unit": "ng/mL"}, {"measurement": "level at 1 h", "setting": "in vivo [2]", "result": 39.3, "unit": "ng/mL"}, {"measurement": "level at 2 h", "setting": "in vivo [2]", "result": 6.76, "unit": "ng/mL"}, {"measurement": "level at 4 h", "setting": "in vivo [2]", "result": 1.83, "unit": "ng/mL"}, {"measurement": "level at 6 h", "setting": "in vivo [2]", "result": "< 0.13", "unit": "ng/mL"}, {"measurement": "level at 0.5 h", "setting": "in vivo [3]; SD (Sprague-Dawley), sc", "result": 44, "unit": "ng/mL"}, {"measurement": "level at 1 h", "setting": "in vivo [3]; SD (Sprague-Dawley), sc", "result": 40.2, "unit": "ng/mL"}, {"measurement": "level at 2 h", "setting": "in vivo [3]; SD (Sprague-Dawley), sc", "result": 24, "unit": "ng/mL"}, {"measurement": "level at 4 h", "setting": "in vivo [3]; SD (Sprague-Dawley), sc", "result": 6.7, "unit": "ng/mL"}, {"measurement": "level at 0.5 h", "setting": "in vivo [3]; SD, inhaled or intranasal", "result": 3.2, "unit": "ng/mL"}, {"measurement": "level at 4 h", "setting": "in vivo [3]; SD, inhaled or intranasal", "result": 3.9, "unit": "ng/mL"}]}
